Experiment: Appearance of acid susceptible proton pump inhibitor powders before and after gamma sterilization
Format: physicochemical
Conditions: for Color change after radiation: gamma sterilization 25 kGy; for Appearance After sterilization (25 kGy) / Appearance Before sterilization: powder; for Appearance After sterilization (25 kGy): after gamma sterilization 25 kGy; for Appearance Before sterilization: before gamma sterilization
Experimental: In addition to esomeprazole sodium exemplified in Example 1, three other acid susceptible proton pump inhibitors, omeprazole sodium, pantoprazole sodium and lansoprazole, were gamma sterilized with a sterilizing dose of 25 kGy. The appearance of the powder was determined before and after gamma sterilization.

Row | SMILES | Color change after radiation | Appearance After sterilization (25 kGy) | Appearance Before sterilization
1 | Cc1c(OCC(F)(F)F)ccnc1C[S+]([O-])c1nc2ccccc2[nH]1 (stereo not shown) [Lansoprazole] | no color change |  | 
2 | COc1ccc2[n-]c([S+]([O-])Cc3ncc(C)c(OC)c3C)nc2c1.[Na+] (stereo not shown) [Omeprazole sodium] | some small (very minor) color changes | Very slightly yellow | White to off-white
3 | COc1ccnc(C[S+]([O-])c2nc3ccc(OC(F)F)cc3[nH]2)c1OC (stereo not shown) [Pantoprazole sodium] | some small (very minor) color changes | Very slightly yellow | White to off-white

Source: patent US20090111856A1, “Parenteral Formulation Comprising Proton Pump Inhibitor Sterilized in its Final Container by Ionizing Radiation” (priority 2006, published 2009)
